Data on eleven compounds can be found in patent US20230406865A1, “CRYSTAL FORM OF FREE BASE OF INHIBITOR CONTAINING BICYCLIC RING DERIVATIVE AND PREPARATION METHOD AND APPLICATION OF CRYSTAL FORM” (SHANGHAI HANSOH BIOMEDICAL CO., LTD., priority 2020, published 2023).

Structures are written as SMILES.

One data set deals with T1, RET kinase (Homo sapiens, UniProt P07949).
T1 construct: purchased Carna 08-159
The experiment in a line: HTRF kinase activity inhibition, RET wild-type. It is filed as biochemical. The settings on record: ATP at Km. From the text:
2.2 Experimental Reagents: • RET enzyme was purchased from Carna Company, and the article number was 08-159; • RET M918T enzyme was purchased from Carna Company, and the article number was 08-508; • KIF5B-RET was purchased from SignalChem Company, the article number was R02-19FG-05; • CCDC6-RET was purchased from SignalChem Company, the article number was R02-19BG-05; • RET V804M enzyme was purchased from Thermofisher Company, and the article number was PV6223; • RET V804L enzyme was purchased from Thermofisher Company, and the article number was PV4397; • HTRF KinEASE-TK kit was purchased from Cisbio Company, and the article number was 62TK0PEC; • ATP was purchased from Thermofisher Company, and the article number was PV3227; • 384-well plate was purchased from PerkinElmer Company, and the article number was 6007290.
In this experiment, a homogeneous time-resolved fluorescence (HTRF) method was used for the detection of compounds on RET kinase activity.

Another data set addresses T2, KDR kinase (Homo sapiens, UniProt P35968).
T2 construct: purchased Carna 08-191
The experiment in a line: HTRF kinase activity inhibition, KDR. The format is biochemical. The settings on record: for IC50: HTRF, ATP at Km; for Ratio (KDR/RET): KDR IC50 / RET IC50. From the text:
2.2 Experimental Reagents: • KDR kinase was purchased from Carna Company, and the article number was 08-191; • HTRF KinEASE-TK kit was purchased from Cisbio Company, and the article number was 62TK0PEC; • ATP was purchased from Thermofisher Company, and the article number was PV3227; • 384-well plate was purchased from PerkinElmer Company, and the article number was 6007290.
In this experiment, the homogeneous time-resolved fluorescence (HTRF) method was used for the detection of compounds on KDR kinase activity.

The subject of data set [1] is TT cells (MTC, RET C634W). The data set is described as follows: Inhibition of proliferation of TT cells (CellTiter-Glo, 72 h). The format is cell-based. The settings on record: Homo sapiens. The method, then:
TT cells were purchased from the cell bank of the Chinese Academy of Sciences.
When TT cells were cultured to the appropriate fusion level, TT cells were collected, and the cells were adjusted to the appropriate cell concentration using complete medium, and the cell suspension was spread in a 96-well plate, 90 μL per well, and placed to the wall of a 37° C., 5% CO2 incubator overnight; and compound solutions of different concentrations were prepared using DMSO and culture medium; and a solvent control was set, the compound solution was added to a 96-well plate, 10 μL per well, and placed to the wall of a 37° C., 5% CO2 incubator for 72 hours; CellTiter-Glo solution was added thereto and the mixture was mixed well by shaking, incubated for 10 minutes in the dark, and read by BioTek Synergy H1 microplate reader.
The IC50 values were obtained by using luminescence signal values to calculate the inhibition rate, the concentration and the inhibition rate were fitted to a nonlinear regression curve using Graphpad Prism software.

For another data set, the target named is T3, Ba/F3 KIF5B-RET cells (Homo sapiens, UniProt P07949).
T3 construct: fused on or other part: P33176 (Kinesin-1 heavy chain)
The experiment in a line: Inhibition of proliferation of Ba/F3 KIF5B-RET cells (CellTiter-Glo). It is filed as cell-based. The settings on record: 72 to 144 hours. The method, then: When Ba/F3 KIF5B-RET cells were cultured to the appropriate cell density, cells were collected, and the cells were adjusted to the appropriate cell concentration using complete medium, and the cell suspension was spread in a 96-well plate, 90 μL per well, and placed in the wall of a 37° C., 5% CO2 incubator overnight; compound solutions of different concentrations were prepared using DMSO and culture medium; a solvent control was set, and the compound solution was added to a 96-well plate with […] at 37° C. in a 5% CO2 incubator for 72 to 144 hours, CellTiter-Glo solution was added thereto and mixed well by shaking, incubated for 10 minutes in the dark, and read by BioTek Synergy H1 microplate reader.
The IC50 values were obtained by using the luminescence signal values to calculate the inhibition rate, the concentrations and the inhibition rates were fitted to a nonlinear regression curve using Graphpad Prism software.
On the technique in general: ATP-based viability assays read luminescence as a measure of living cells.

The nature of data set [2]: Balb/C mouse pharmacokinetics, oral 5 mg/kg. The format is in vivo, Balb/C mice. The settings on record: male, p.o. 5 mg/kg, plasma. The method, then: The pharmacokinetic behavior of the following compound embodiments, administered orally at a dose of 5 mg/kg in plasma in mice, was studied using Balb/C mice as test animals.
Balb/C Mouse 6/embodiment, male, Shanghai Jiesijie Laboratory Animal Co., Ltd, Animal Production License No. (SCXK (Shanghai) 2013-0006 N0.311620400001794).
Balb/C mice, males; p.o. after overnight fasting, respectively, at a dose of 5 mg/kg, administered in a volume of 10 mL/kg.
0.5% CMC-Na (1% Tween80) was dissolved by ultrasound, and prepared into clear solution or uniform suspension.
Before and after administration, 0.1 mL of blood was collected from mice at 0, 0.5, 1, 2, 4, 6, 8 and 24 hours by orbital collection, placed in EDTA-K2 tubes, centrifuged at 6000 rpm at 4° C. for 6 minutes to separate plasma, and stored at −80° C.
2.5 Sample Handling: • 1) 40 μL of plasma sample was precipitated by adding 160 μL of acetonitrile, mixed and centrifuged at 3500×g for 5-20 minutes. • 2) 100 μL of the supernatant solution after treatment was taken to analyze the concentration of the test compound by LC/MS/MS.
2.6 Liquid Phase Analysis • Liquid phase conditions: Shimadzu LC-20AD pump • Mass spectrometry conditions: AB Sciex API 4000 mass spectrometer • Chromatographic column: phenomenex Gemiu 5 μM C18 50×4.6 mm • Mobile phase: Liquid A was 0.1% formic acid aqueous solution, liquid B was acetonitrile • Flow rate: 0.8 mL/min • Elution time: 0-4.0 minutes, the eluent was as follows:
The main pharmacokinetic parameters were calculated by WinNonlin 6.1 and the results of the mouse pharmacokinetic experiments were shown in Table 13 below.

T2 sequence (P35968 20-1356): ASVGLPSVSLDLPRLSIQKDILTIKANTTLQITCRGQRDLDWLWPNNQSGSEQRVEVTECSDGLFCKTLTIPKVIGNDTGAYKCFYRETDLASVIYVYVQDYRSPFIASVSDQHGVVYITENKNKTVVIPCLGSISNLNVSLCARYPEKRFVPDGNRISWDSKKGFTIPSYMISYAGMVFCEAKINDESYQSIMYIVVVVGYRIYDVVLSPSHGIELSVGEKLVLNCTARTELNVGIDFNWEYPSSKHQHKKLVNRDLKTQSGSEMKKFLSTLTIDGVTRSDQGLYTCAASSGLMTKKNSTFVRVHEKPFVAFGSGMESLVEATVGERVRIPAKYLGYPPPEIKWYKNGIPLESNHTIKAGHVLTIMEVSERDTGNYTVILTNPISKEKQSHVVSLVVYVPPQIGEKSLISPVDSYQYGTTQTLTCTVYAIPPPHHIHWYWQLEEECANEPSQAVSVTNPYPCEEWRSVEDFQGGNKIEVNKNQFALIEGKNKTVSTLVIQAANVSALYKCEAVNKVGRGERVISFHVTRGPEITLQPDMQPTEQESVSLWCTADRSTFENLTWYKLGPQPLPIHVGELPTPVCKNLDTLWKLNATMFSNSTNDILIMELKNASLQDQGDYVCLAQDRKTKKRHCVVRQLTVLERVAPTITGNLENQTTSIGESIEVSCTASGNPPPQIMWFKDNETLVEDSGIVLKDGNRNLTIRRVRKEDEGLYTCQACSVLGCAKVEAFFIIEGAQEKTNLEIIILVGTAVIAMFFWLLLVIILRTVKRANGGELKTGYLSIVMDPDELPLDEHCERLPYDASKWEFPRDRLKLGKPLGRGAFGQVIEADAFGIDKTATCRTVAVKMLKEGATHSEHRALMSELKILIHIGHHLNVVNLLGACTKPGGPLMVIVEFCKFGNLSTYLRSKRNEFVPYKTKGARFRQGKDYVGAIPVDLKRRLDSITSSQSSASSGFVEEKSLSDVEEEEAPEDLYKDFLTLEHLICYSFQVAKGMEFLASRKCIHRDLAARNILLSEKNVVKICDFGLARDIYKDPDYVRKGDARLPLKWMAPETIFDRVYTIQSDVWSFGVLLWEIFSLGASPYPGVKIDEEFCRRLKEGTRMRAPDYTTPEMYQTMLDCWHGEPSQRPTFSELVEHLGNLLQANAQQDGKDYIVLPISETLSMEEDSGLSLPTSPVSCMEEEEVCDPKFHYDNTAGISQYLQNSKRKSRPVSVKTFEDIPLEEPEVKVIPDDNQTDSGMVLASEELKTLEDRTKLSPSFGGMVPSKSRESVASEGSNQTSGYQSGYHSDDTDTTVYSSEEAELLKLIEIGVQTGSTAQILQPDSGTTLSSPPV
T1 sequence (P07949 29-1114): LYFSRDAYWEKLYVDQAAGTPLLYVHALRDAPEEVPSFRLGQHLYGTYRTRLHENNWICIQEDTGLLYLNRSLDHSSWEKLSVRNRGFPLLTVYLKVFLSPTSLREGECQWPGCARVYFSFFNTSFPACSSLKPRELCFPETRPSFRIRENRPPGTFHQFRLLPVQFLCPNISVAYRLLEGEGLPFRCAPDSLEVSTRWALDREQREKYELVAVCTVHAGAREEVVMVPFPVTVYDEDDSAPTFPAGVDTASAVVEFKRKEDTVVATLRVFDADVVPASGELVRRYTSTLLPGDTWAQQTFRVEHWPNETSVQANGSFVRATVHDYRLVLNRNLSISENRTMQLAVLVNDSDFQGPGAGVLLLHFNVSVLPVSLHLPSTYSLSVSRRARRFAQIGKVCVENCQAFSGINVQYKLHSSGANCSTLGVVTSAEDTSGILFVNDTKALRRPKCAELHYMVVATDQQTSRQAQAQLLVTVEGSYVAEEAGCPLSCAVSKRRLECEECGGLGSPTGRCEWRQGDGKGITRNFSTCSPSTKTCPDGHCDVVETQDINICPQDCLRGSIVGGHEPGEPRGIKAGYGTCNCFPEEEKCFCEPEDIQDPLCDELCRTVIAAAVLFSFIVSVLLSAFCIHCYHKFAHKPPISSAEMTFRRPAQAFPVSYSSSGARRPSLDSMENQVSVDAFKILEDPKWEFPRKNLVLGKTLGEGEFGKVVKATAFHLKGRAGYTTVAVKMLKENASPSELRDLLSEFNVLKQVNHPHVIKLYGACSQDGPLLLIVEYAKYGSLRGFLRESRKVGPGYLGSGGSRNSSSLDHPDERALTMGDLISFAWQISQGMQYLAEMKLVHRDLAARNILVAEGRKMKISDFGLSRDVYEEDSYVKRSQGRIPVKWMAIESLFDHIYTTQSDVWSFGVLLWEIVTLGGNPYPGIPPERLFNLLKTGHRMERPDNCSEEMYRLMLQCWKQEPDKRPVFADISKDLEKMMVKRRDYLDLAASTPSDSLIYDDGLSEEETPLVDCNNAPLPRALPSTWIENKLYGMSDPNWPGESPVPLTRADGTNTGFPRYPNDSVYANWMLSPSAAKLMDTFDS
T3 sequence (P07949 whole entry, change not shown, the tested form may be a part): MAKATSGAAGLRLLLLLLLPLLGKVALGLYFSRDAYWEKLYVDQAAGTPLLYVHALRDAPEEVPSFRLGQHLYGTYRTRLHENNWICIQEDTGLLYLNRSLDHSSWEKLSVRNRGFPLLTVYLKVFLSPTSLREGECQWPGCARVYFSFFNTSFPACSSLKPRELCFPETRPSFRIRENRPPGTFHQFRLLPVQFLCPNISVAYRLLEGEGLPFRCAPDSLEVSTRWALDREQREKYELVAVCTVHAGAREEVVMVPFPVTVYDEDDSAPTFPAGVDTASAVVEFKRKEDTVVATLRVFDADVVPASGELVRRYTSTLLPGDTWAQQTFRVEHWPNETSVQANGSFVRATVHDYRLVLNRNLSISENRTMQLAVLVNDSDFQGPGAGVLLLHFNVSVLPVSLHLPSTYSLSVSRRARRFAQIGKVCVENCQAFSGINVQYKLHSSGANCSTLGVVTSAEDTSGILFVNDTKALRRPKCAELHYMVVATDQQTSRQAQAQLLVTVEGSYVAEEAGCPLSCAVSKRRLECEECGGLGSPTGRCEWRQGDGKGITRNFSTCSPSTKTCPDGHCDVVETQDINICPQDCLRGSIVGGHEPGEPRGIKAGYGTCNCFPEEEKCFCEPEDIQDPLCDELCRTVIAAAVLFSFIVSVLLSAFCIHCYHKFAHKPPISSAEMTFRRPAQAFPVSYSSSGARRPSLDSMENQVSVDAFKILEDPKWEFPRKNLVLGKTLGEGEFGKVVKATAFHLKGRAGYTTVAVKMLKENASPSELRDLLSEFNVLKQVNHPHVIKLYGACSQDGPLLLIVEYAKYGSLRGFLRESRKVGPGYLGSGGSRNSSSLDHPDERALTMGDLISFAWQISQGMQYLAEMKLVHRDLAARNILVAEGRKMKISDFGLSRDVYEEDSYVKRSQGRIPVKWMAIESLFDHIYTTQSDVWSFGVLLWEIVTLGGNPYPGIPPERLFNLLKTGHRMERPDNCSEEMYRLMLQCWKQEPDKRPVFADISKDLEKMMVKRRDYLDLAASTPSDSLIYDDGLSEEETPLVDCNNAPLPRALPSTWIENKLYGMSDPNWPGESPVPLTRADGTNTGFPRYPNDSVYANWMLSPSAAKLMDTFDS

By IC50 is commonly meant the concentration at which inhibition is half-maximal. For `COc1ccc(CN2C3CC2CN(c2ccc(-c4cc(OCC5CCS(=N)(=O)CC5)cn5ncc(C#N)c45)cn2)C3)cn1` (stereo not shown) [Embodiment 54, 6-((1-Imino-1-hydroxyhexahydro-1l6-thiopyran-4-yl)methoxy)-4-(6-(6-((6-methoxypyridin-3-yl)methyl)-3,6-diazabicyclo[3.1.1]heptan-3-yl)pyridin-3-yl)pyrazolo[1,5-a]pyridine-3-carbonitrile], the IC50 is 0.34 nM at RET kinase, 9 nM on KDR kinase and 9 nM in data set [1]. Further, the “Ratio (KDR/RET)” value at KDR kinase turned out to be 26.

`COc1ccc(CN2C3CC2CN(c2ccc(-c4cc(OCC56CC(O)(C5)C6)cn5ncc(C#N)c45)cn2)C3)cn1` [Embodiment 47, 6-((3-Hydroxybicyclo[1.1.1]pentan-1-yl)methoxy)-4-(6-(6-((6-methoxypyridin-3-yl)methyl)-3,6-diazabicyclo[3.1.1]heptan-3-yl)pyridin-3-yl)pyrazolo[1,5-a]pyridine-3-carbonitrile]: the figures for the IC50 (at RET kinase; at KDR kinase; in data set [1]) were 0.4 nM, 176 nM and 13.3 nM, respectively. The “Ratio (KDR/RET)” value at KDR kinase worked out at 438.

For `COc1ccc(CN2C3CC2CN(c2ccc(-c4cc(C#C[C@H](C)O)cn5ncc(C#N)c45)cn2)C3)cn1` [Embodiment 21, 6-((S)-3-Hydroxybut-1-yn-1-yl)-4-(6-(6-((6-methoxypyridin-3-yl)methyl)-3,6-diazabicyclo[3.1.1]heptan-3-yl)pyridin-3-yl)pyrazolo[1,5-a]pyridine-3-carbonitrile], the IC50 is 0.41 nM against RET kinase, 9.4 nM on KDR kinase and 18.1 nM in data set [1]. For the same compound, the “Ratio (KDR/RET)” value at KDR kinase is recorded as 23.

Consider `COc1ccc(CN2C3CC2CN(c2ccc(-c4cc(C#CCC(C)(C)O)cn5ncc(C#N)c45)cn2)C3)cn1` [Embodiment 48, 6-(4-Hydroxy-4-methylpent-1-yn-1-yl)-4-(6-(6-((6-methoxypyridin-3-yl)methyl)-3,6-diazabicyclo[3.1.1]heptan-3-yl)pyridin-3-yl)pyrazolo[1,5-a]pyridine-3-carbonitrile], for which the values for the half-maximal inhibitory concentration (IC50) (on RET kinase; against KDR kinase; in data set [1]) were 0.42 nM, 13 nM and 19.6 nM, respectively. In addition, the “Ratio (KDR/RET)” value on KDR kinase was 30.

As for `[2H]C([2H])([2H])Oc1ccc(CN2C3CC2CN(c2ccc(-c4cc(N5CC(C(C)(C)O)C5)cn5ncc(C#N)c45)cn2)C3)cn1` [Embodiment 41, 6-(3-(2-Hydroxypropan-2-yl)azetidin-1-yl)-4-(6-(6-((6-(methoxy-d3)pyridin-3-yl)methyl)-3,6-diazabicyclo[3.1.1]heptan-3-yl)pyridin-3-yl)pyrazolo[1,5-a]pyridine-3-carbonitrile], the values for the IC50 (at RET kinase; against KDR kinase; in data set [1]) were 0.4 nM, 11 nM and 9.45 nM, respectively. On KDR kinase, the “Ratio (KDR/RET)” value is given as 27.

As to `COc1ccc(CN2C3CC2CN(c2ccc(-c4cc(OCC5(C#N)CC5)cn5ncc(C#N)c45)cn2)C3)cn1` [Embodiment 27, 6-((1-Cyanocyclopropyl)methoxy)-4-(6-(6-((6-methoxypyridin-3-yl)methyl)-3,6-diazabicyclo[3.1.1]heptan-3-yl)pyridin-3-yl)pyrazolo[1,5-a]pyridine-3-carbonitrile], the concentration for half-maximal inhibition (IC50) against RET kinase came to 0.32 nM; against KDR kinase, 88 nM; on Ba/F3 KIF5B-RET cells, 15.9 nM. Moreover, the “Ratio (KDR/RET)” value at KDR kinase is 280.

As usually defined, the MRT is a mean duration of stay, worked out from the concentration-time curve. By Tmax is commonly meant the time from dosing to the highest level. As for `COc1ccc(CN2C3CC2CN(c2ccc(-c4cc(OCC5(C#N)CCC5)cn5ncc(C#N)c45)cn2)C3)cn1` [Embodiment 36, 6-((1-Cyanocyclobutyl)methoxy)-4-(6-(6-((6-methoxypyridin-3-yl)methyl)-3,6-diazabicyclo[3.1.1]heptan-3-yl)pyridin-3-yl)pyrazolo[1,5-a]pyridine-3-carbonitrile], the half-maximal inhibitory concentration (IC50) on RET kinase amounted to 0.83 nM. Further, on KDR kinase, the IC50 was 213 nM and the “Ratio (KDR/RET)” value turned out to be 257. In addition, the MRT in data set [2] (read-out: Average residence time MRT) came out at 3.8 h. Further, the Cmax in data set [2] (read-out: Blood concentration Cmax) came out at 1490 ng/mL. For the same compound, the AUC(0-t) in data set [2] (read-out: Curve area AUC0-t) amounted to 6210 ng·h/mL. Besides, the AUC(0-inf) in data set [2] (read-out: Curve area AUC0-∞) was determined as 6220 ng·h/mL. For the same compound, in data set [2] (read-out: Half-life t1/2 (converted)), the half-life is 2.19 h. Moreover, the Tmax in data set [2] (read-out: Peak time tmax) turned out to be 0.5 h.

`COc1ccc(CN2C3CC2CN(c2ccc(-c4cc(N5CC6(C5)CC(C)(O)C6)cn5ncc(C#N)c45)cn2)C3)cn1` [Embodiment 32, 6-(6-Hydroxy-6-methyl-2-azaspiro[3.3]heptan-2-yl)-4-(6-(6-((6-methoxypyridin-3-yl)methyl)-3,6-diazabicyclo[3.1.1]heptan-3-yl)pyridin-3-yl)pyrazolo[1,5-a]pyridine-3-carbonitrile]: the values for the IC50 (at RET kinase; on KDR kinase; in data set [1]) were 0.49 nM, 1.8 nM and 2.07 nM, respectively. Moreover, at KDR kinase, the “Ratio (KDR/RET)” value is recorded as 4.

For the compound `COc1ccc(CN2C3CC2CN(c2ccc(-c4cc(C#CC(O)C5CC5)cn5ncc(C#N)c45)cn2)C3)cn1` (stereo not shown) [Embodiment 19, 6-(3-Cyclopropyl-3-hydroxyprop-1-yn-1-yl)-4-(6-(6-((6-methoxypyridin-3-yl)methyl)-3,6-diazabicyclo[3.1.1]heptan-3-yl)pyridin-3-yl)pyrazolo[1,5-a]pyridine-3-carbonitrile], the IC50 on Ba/F3 KIF5B-RET cells is 27.8 nM.

In the case of `CC(C)(O)C#Cc1cc(-c2ccc(N3CC4CC(C3)N4Cc3ccc(OC4CC4)nc3)nc2)c2c(C#N)cnn2c1` [Embodiment 26, 4-(6-(6-((6-Cyclopropoxypyridin-3-yl)methyl)-3,6-diazabicyclo[3.1.1]heptan-3-yl)pyridin-3-yl)-6-(3-hydroxy-3-methylbut-1-yn-1-yl)pyrazolo[1,5-a]pyridine-3-carbonitrile], the IC50 in data set [1] was found to be 19 nM.

`CC1(NC(=O)c2ncccc2Cl)CCN(c2ccc(-c3cc(OCC4(N)CC4)cn4ncc(C#N)c34)cn2)CC1` [Embodiment 91, N-(1-(5-(6-((1-aminocyclopropyl)methoxy)-3-cyanopyrazolo[1,5-a]pyridin-4-yl)pyridin-2-yl)-4-methylpiperidin-4-yl)-3-chloropicolinamide]: the IC50 against RET kinase worked out at 1.54 nM; against KDR kinase it was 204 nM; in data set [1] it was 29.6 nM. For the same compound, at KDR kinase, the “Ratio (KDR/RET)” value was determined as 133.
